Where no end group is shown, it is not given here.
System: sheep erythrocytes
Experiment: Hemolysis assay: decrease in absorbance
Type: cell-based
Conditions: grouped as hemolytic (yes) or non-hemolytic (no)

| Compound | Hemolytic |
| --- | --- |
| CC(C)C[C@H](NC=O)C(=O)N[C@@H](C)C(=O)N[C@@H](C)C(=O)N[C@@H](CC(=O)O)C(=O)N[C@@H](CC(C)C)C(=O)N[C@@H](CC(C)C)C(=O)N[C@@H](C)C(=O)N[C@@H](C)C(=O)N[C@@H](CC(C)C)C(=O)NCC(=O)N[C@@H](CC(=O)O)C(=O)N[C@@H](CC(C)C)C(=O)N[C@@H](C)C(=O)N[C@@H](CCCCN)C(=O)N[C@@H](Cc1c[nH]c2ccccc12)C(=O)N[C@@H](CC(C)C)C(=O)N[C@@H](CC(C)C)C(=O)N[C@@H](CC(=O)O)C(=O)N[C@@H](C)C(=O)N[C@@H](CC(C)C)C(=O)N[C@@H](C)C(=O)N[C@@H](CCCCN)C(=O)N[C@@H](C)C(=O)N[C@@H](C)C(=O)N[C@@H](CCCCN)C(=O)N[C@@H](CCCCN)C(=O)O (racemic) [DL-2a] | yes |
| CC[C@H](C)[C@H](NC(=O)[C@H](Cc1c[nH]c2ccccc12)NC(=O)[C@H](CCCCN)NC(=O)[C@@H](NC(=O)[C@H](CC(C)C)NC(=O)[C@H](CC(=O)O)NC(=O)CNC(=O)[C@@H](NC(=O)[C@@H](NC(=O)[C@H](CO)NC(=O)[C@@H](NC(=O)[C@@H](NC(=O)[C@H](CC(=O)O)NC(=O)[C@H](CCC(N)=O)NC(=O)[C@H](C)NC(=O)[C@H](CCSC)NC=O)[C@@H](C)CC)[C@@H](C)CC)[C@@H](C)O)[C@@H](C)CC)C(C)C)C(=O)N[C@H](C(=O)N[C@@H](CC(=O)O)C(=O)N[C@H](C(=O)N[C@H](C(=O)N[C@@H](CC(N)=O)C(=O)N[C@@H](CCCCN)C(=O)N[C@@H](Cc1ccccc1)C(=O)N[C@H](C(=O)N[C@@H](CCCCN)C(=O)N[C@@H](CCCCN)C(=O)O)[C@@H](C)O)C(C)C)[C@@H](C)O)[C@@H](C)CC [δ-Lysin, reference compound] | yes |
| CC[C@H](C)[C@H](NC(=O)[C@H](CCCCN)NC(=O)[C@H](CCCCN)NC(=O)[C@H](C)NC(=O)[C@H](CC(C)C)NC(=O)[C@H](C)NC(=O)[C@H](C)NC(=O)[C@H](CC(C)C)NC(=O)[C@H](C)NC(=O)[C@H](CCCCN)NC(=O)[C@H](CC(C)C)NC(=O)[C@H](CC(N)=O)NC(=O)[C@@H](NC(=O)[C@H](CCCCN)NC(=O)CNC(=O)[C@H](CC(C)C)NC(=O)[C@H](CC(C)C)NC(=O)[C@H](Cc1c[nH]c2ccccc12)NC(=O)CNC(=O)[C@H](C)N)[C@@H](C)CC)C(=O)N[C@@H](CC(C)C)C(N)=O [TP10W] | yes |
| GLGKLLHAAKKLGKAWLGELLAA [MG-2] | yes |
| CC[C@H](C)[C@H](NC(=O)[C@H](Cc1c[nH]c2ccccc12)NC(=O)[C@H](CCCCN)NC(=O)[C@@H](NC(=O)[C@H](CC(C)C)NC(=O)[C@H](CCCCN)NC(=O)CNC(=O)[C@@H](NC(=O)[C@@H](NC(=O)[C@H](CO)NC(=O)[C@@H](NC(=O)[C@@H](NC(=O)[C@H](CCCCN)NC(=O)[C@H](CCC(N)=O)NC(=O)[C@H](C)NC(=O)[C@H](CCSC)NC=O)[C@@H](C)CC)[C@@H](C)CC)[C@@H](C)O)[C@@H](C)CC)C(C)C)C(=O)N[C@H](C(=O)N[C@@H](CCCCN)C(=O)N[C@H](C(=O)N[C@H](C(=O)N[C@@H](CC(N)=O)C(=O)N[C@@H](CCCCN)C(=O)N[C@@H](Cc1ccccc1)C(=O)N[C@H](C(=O)N[C@@H](CCCCN)C(=O)N[C@@H](CCCCN)C(=O)O)[C@@H](C)O)C(C)C)[C@@H](C)O)[C@@H](C)CC (racemic) [DL-1] | yes |
| AGWLLGDINLKALAALAKKIL-NH2 [TPW-3] | yes |
| AGWLLGKLALKALAALAKKLL-NH2 [TPW-2] | yes |
| KWKLLKKLEKAGAALKEGLLKAGPALALLGAAAALAK-NH2 [CE-2] | yes |
| AGWLLGDINLDALAALAKKIL-NH2 [TPW-1] | yes |
| GILKFLESAKKWLEAFLAEIMNS [MG-1] | yes |

Source: PMC3584441 (The Journal of membrane biology, 2013)
